Source: patent publication US9149038B2, “4-amino-6-(heterocyclic)picolinates and 6-amino-2-(heterocyclic)pyrimidine-4-carboxylates and their use as herbicides” (Dow AgroSciences LLC, priority 2013, dated 2015)
Read-outs that look alike come from different tables or passages of the source.

What was measured:
[1] = system: Key Grass and Sedge Weeds as well as Grass Crops; assay: Post-Emergent Test II: postemergent herbicidal activity, visual rating after 14 d (Table 8); assay type: in vivo; conditions: post-emergence, 336 h; for pest or weed control at 35 g/ha: 35 g ai/ha; for pest or weed control at 70 g/ha: 70 g ai/ha; for pest or weed control at 140 g/ha: 140 g ai/ha
Description: (§1) Herbicidal evaluations were made visually on a scale of 0 to 100 where 0 represents no activity and 100 represents complete plant death.
(§2) Seeds or nutlets of the desired test plant species were planted in Sun Gro Metro-Mix® 360 planting mixture, which typically has a pH of 6.0 to 6.8 and an organic matter content of about 30 percent, in plastic pots with a surface area of 64 square centimeters (cm^2). When required to ensure good germination and healthy plants, a fungicide treatment and/or other chemical or physical treatment was applied. The plants were grown for 7-21 d in a greenhouse with an approximate 15 h photoperiod which was maintained at about 23-29° C. during the day and 22-28° C. during the night. Nutrients and water were added on a regular basis and supplemental lighting was provided with overhead metal halide 1000-Watt lamps as necessary. The plants were employed for testing when they reached the first or second true leaf stage.
(§3) A weighed amount, determined by the highest rate to be tested, of each test compound was placed in a 25 mL glass vial and was dissolved in 4 mL of a 97:3 v/v mixture of acetone and DMSO to obtain concentrated stock solutions. […] The concentrated stock solutions obtained were diluted with 20 mL of an aqueous mixture containing acetone, water, isopropyl alcohol, DMSO, Atplus 411F crop oil concentrate, and Triton® X-155 surfactant in a 48.5:39:10:1.5:1.0:0.02 v/v ratio to obtain spray solutions containing the highest application rates. Additional application rates were obtained by serial dilution of 12 mL of the high rate solution into a solution containing 2 mL of a 97:3 v/v mixture of acetone and DMSO and 10 mL of an aqueous mixture containing acetone, water, isopropyl alcohol, DMSO, Atplus 411F crop oil concentrate, and Triton X-155 surfactant in a 48.5:39:10:1.5:1.0:0.02 v/v ratio to obtain ½×, ¼×, ⅛× and 1/16× rates of the high rate. Compound requirements are based upon a 12 mL application volume at a rate of 187 liters per hectare (L/ha). Formulated compounds were applied to the plant material with an overhead Mandel track sprayer equipped with 8002E nozzles calibrated to deliver 187 L/ha over an application area of 0.503 square meters at a spray height of 18 inches (43 cm) above the average plant canopy height. Control plants were sprayed in the same manner with the solvent blank.
(§4) The treated plants and control plants were placed in a greenhouse as described above and watered by subirrigation to prevent wash-off of the test compounds. After 14 d, the condition of the test plants as compared with that of the untreated plants was determined visually and scored on a scale of 0 to 100 percent where 0 corresponds to no injury and 100 corresponds to complete kill and are presented as indicated in Table 4.

[2] = system: Key Broadleaf Weed and Crop Species; assay: Post-Emergent Test II: postemergent herbicidal activity, visual rating after 14 d (Table 7); assay type: in vivo; conditions: post-emergence, 336 h; for pest or weed control at 35 g/ha: 35 g ai/ha; for pest or weed control at 70 g/ha: 70 g ai/ha; for pest or weed control at 140 g/ha: 140 g ai/ha
Description: as §1, §2, §3, §4

[3] = barnyardgrass (Echinochloa crus-galli), read-out: Visual Growth Reduction (%) 14 Days After Application ECHCG
[4] = maize, corn (Zea mays), read-out: Visual Growth Reduction (%) 14 Days After Application ZEAMX
[5] = rice (Oryza sativa), read-out: Visual Growth Reduction (%) 14 Days After Application ORYSA
[6] = wheat, spring (Triticum aestivum), read-out: Visual Growth Reduction (%) 14 Days After Application TRZAS
[7] = yellow nutsedge (Cyperus esculentus), read-out: Visual Growth Reduction (%) 14 Days After Application CYPES
[8] = lambsquarters (Chenopodium album), read-out: Visual Growth Reduction (%) 14 Days After Application CHEAL
[9] = oilseed rape, canola (Brassica napus), read-out: Visual Growth Reduction (%) 14 Days After Application BRSNN
[10] = redroot pigweed (Amaranthus retroflexus), read-out: Visual Growth Reduction (%) 14 Days After Application AMARE
[11] = sunflower (Helianthus annuus), read-out: Visual Growth Reduction (%) 14 Days After Application HELAN
[12] = velvetleaf (Abutilon theophrasti), read-out: Visual Growth Reduction (%) 14 Days After Application ABUTH
[13] = wild poinsettia (Euphorbia heterophylla), read-out: Visual Growth Reduction (%) 14 Days After Application EPHHL
[14] = giant foxtail (Setaria faberi), read-out: Visual Growth Reduction (%) 14 Days After Application SETFA

Structure (SMILES) | pest or weed control at 35 g/ha [1, 3] [%] | pest or weed control at 70 g/ha [1, 3] [%] | pest or weed control at 140 g/ha [1, 3] [%] | pest or weed control at 35 g/ha [1, 5] [%] | pest or weed control at 70 g/ha [1, 5] [%] | pest or weed control at 140 g/ha [1, 5] [%] | pest or weed control at 35 g/ha [1, 6] [%] | pest or weed control at 70 g/ha [1, 6] [%] | pest or weed control at 140 g/ha [1, 6] [%] | pest or weed control at 35 g/ha [1, 7] [%] | pest or weed control at 70 g/ha [1, 7] [%] | pest or weed control at 140 g/ha [1, 7] [%] | pest or weed control at 35 g/ha [2, 8] [%] | pest or weed control at 70 g/ha [2, 8] [%] | pest or weed control at 140 g/ha [2, 8] [%] | pest or weed control at 35 g/ha [2, 9] [%] | pest or weed control at 70 g/ha [2, 9] [%] | pest or weed control at 140 g/ha [2, 9] [%] | pest or weed control at 35 g/ha [2, 10] [%] | pest or weed control at 70 g/ha [2, 10] [%] | also measured
COC(=O)c1nc(-c2cc3c(cc2Cl)OC(F)(F)O3)cc(N)c1Cl [Compound 40] | 0 to 29 | 0 to 29 | 0 to 29 | 0 to 29 | 0 to 29 | 0 to 29 | 0 to 29 | 0 to 29 | 0 to 29 | 0 to 29 | 0 to 29 | 0 to 29 | 0 to 29 | 0 to 29 | 0 to 29 | 0 to 29 | 0 to 29 | 0 to 29 | 0 to 29 | 95 to 100 | pest or weed control at 35 g/ha [1, 4]: 0 to 29%; pest or weed control at 70 g/ha [1, 4]: 0 to 29%; pest or weed control at 140 g/ha [1, 4]: 45 to 59%; pest or weed control at 140 g/ha [2, 10]: 95 to 100%; pest or weed control at 35 g/ha [2, 11]: 0 to 29%; pest or weed control at 70 g/ha [2, 11]: 0 to 29%; pest or weed control at 140 g/ha [2, 11]: 0 to 29%; pest or weed control at 35 g/ha [2, 12]: 0 to 29%; pest or weed control at 70 g/ha [2, 12]: 0 to 29%; pest or weed control at 140 g/ha [2, 12]: 0 to 29%; pest or weed control at 35 g/ha [2, 13]: 0 to 29%; pest or weed control at 70 g/ha [2, 13]: 0 to 29%; pest or weed control at 140 g/ha [2, 13]: 0 to 29%
Nc1nc(-c2ccc3c(c2)OC(F)(F)O3)nc(C(=O)O)c1Cl [Compound 61] | 85 to 94 | 85 to 94 | 85 to 94 | 0 to 29 | 45 to 59 | 60 to 74 | 60 to 74 | 75 to 84 | 75 to 84 | 0 to 29 | 0 to 29 | 45 to 59 | 60 to 74 | 60 to 74 | 75 to 84 | 60 to 74 | 85 to 94 | 75 to 84 | 0 to 29 | 30 to 44 | pest or weed control at 35 g/ha [1, 14]: 60 to 74%; pest or weed control at 70 g/ha [1, 14]: 75 to 84%; pest or weed control at 140 g/ha [1, 14]: 85 to 94%; pest or weed control at 140 g/ha [2, 10]: 30 to 44%; pest or weed control at 35 g/ha [2, 11]: 60 to 74%; pest or weed control at 70 g/ha [2, 11]: 60 to 74%; pest or weed control at 140 g/ha [2, 11]: 75 to 84%; pest or weed control at 35 g/ha [2, 12]: 45 to 59%; pest or weed control at 70 g/ha [2, 12]: 60 to 74%; pest or weed control at 140 g/ha [2, 12]: 60 to 74%; pest or weed control at 35 g/ha [2, 13]: 85 to 94%; pest or weed control at 70 g/ha [2, 13]: 95 to 100%; pest or weed control at 140 g/ha [2, 13]: 95 to 100%
COC(=O)c1nc(-c2ccc(Cl)c3c2OC(F)(F)O3)c(Cl)c(N)c1Cl [Compound 70] | 0 to 29 | 0 to 29 | 0 to 29 | 0 to 29 | 0 to 29 | 0 to 29 | 0 to 29 | 0 to 29 | 0 to 29 | 0 to 29 | 0 to 29 | 0 to 29 | 75 to 84 | 85 to 94 | 95 to 100 | 60 to 74 | 60 to 74 | 75 to 84 | 95 to 100 | 95 to 100 | pest or weed control at 35 g/ha [1, 14]: 0 to 29%; pest or weed control at 70 g/ha [1, 14]: 0 to 29%; pest or weed control at 140 g/ha [1, 14]: 0 to 29%; pest or weed control at 140 g/ha [2, 10]: 95 to 100%; pest or weed control at 35 g/ha [2, 11]: 85 to 94%; pest or weed control at 70 g/ha [2, 11]: 95 to 100%; pest or weed control at 140 g/ha [2, 11]: 95 to 100%; pest or weed control at 35 g/ha [2, 12]: 45 to 59%; pest or weed control at 70 g/ha [2, 12]: 75 to 84%; pest or weed control at 140 g/ha [2, 12]: 75 to 84%; pest or weed control at 35 g/ha [2, 13]: 0 to 29%; pest or weed control at 70 g/ha [2, 13]: 0 to 29%; pest or weed control at 140 g/ha [2, 13]: 0 to 29%
